Assay results as given in patent publication US20240268380A1, “USE OF ESSENTIAL OILS AS BIOSTIMULANTS FOR MYCELIA AND MUSHROOMS” (MYCELIANCE, priority 2021, published 2024).

Tested on: Agaricus bisporus mycelium
Experiment: Stimulation of the growth of Agaricus bisporus mycelium on PDA culture medium
Type: cell-based
Conditions: for effect on the growth of the Agaricus bisporus mycelium: purified terpene at 40 μL/L, TripleX make (Amycel)
Description: • Mixing, in a sterile container, the essential oil or oils or the terpene or terpenes selected according to the invention, with the surfactant or surfactants, in equal portions: […], therefore preparing 200 μl in total.
• Preparing 2 times 1 litre of PDA in accordance with the instructions of the supplier, in separate containers. • Sterilising the two solutions at the same time, 15 minutes at 121° C. in an autoclave.
• Waiting until the two solutions drop in temperature, to reach approximately 40° C. • Homogenising and then pouring the composition of biostimulants, into one of the two containers. • Pouring the same volume of the surfactant or surfactants used, into the second container. • Placing under stirring, and then pouring the 2 litres of solutions into annotated petri dishes. • Placing the petri dishes in an incubator at 23° C.±1° C. and 80% humidity.
• Inoculating all the petri dishes with the mushroom strain selected. • Re-placing the petri dishes in an incubator at 23° C.±1° C. and 80% humidity.
• After 7 days, tracing the contour of the mycelium under the petri dishes, with a fine marker. • Once again tracing the contour of the mycelium after 14 and 21 days following the inoculation. • Measuring its growth to within 0.5 mm, on 4 axes separated by 90°, for each petri dish. • Calculating the mean growths measured, then determining the percentage inhibition or biostimulation compared with the reference, which contains only the surfactant or surfactants, without the essential oil or oils or the terpene and terpenes use.
The manipulations for each essential oil tested were reproduced 40 times, using the Agaricus bisporus mycelium of Heirloom make, supplied by the American company Amycel.
The tests were performed on three strains of Agaricus bisporus (of Heirloom and TripleX makes from the company Amycel and Tuscan from the company Sylvan) with the purified terpene ([…]. […]

| SMILES | effect on the growth of the Agaricus bisporus mycelium | effect on the growth of the mycelia of three strains of Agaricus bisporus (purified terpene, Heirloom and TripleX makes at 40 or 80 μL/L, Tuscan make at 80 or 100 μL/L, effect reinforced by increasing the concentration) |
| --- | --- | --- |
| CC1=CCC2CC1C2(C)C (stereo not drawn) [α-pinene, reference compound] | inhibiting effect | – |
| C=C1CCC2CC1C2(C)C (stereo not drawn) [β-pinene] | biostimulant effect | very marked effect of biostimulation |
